Measurements: ChEMBL document CHEMBL3044602, “In vitro antiproliferative effect of -phenylethylamine derivatives and doxorubicin combinations on MCF/ADR cell lines” (Med Chem Res, 2013)

Tests used:
[1] = Cytotoxicity against Homo sapiens (human) MCF7/ADR cells assessed as inhibition of cell proliferation after 48 hr by SRB assay; type: cell-based, NCI/ADR-RES; settings: for IC10: human
[2] = target: ATP-dependent translocase ABCB1 (Homo sapiens, UniProt P08183); experiment: Inhibition of P-glycoprotein in Homo sapiens (human) MCF7/ADR cells assessed as doxorubicin-induced growth inhibition after 48 hr by SRB assay (Doxorubicin Rvb = 5.1 +/-1.2%); type: cell-based; settings: nci/adr-res
ATP-dependent translocase ABCB1, sequence (P08183 whole entry): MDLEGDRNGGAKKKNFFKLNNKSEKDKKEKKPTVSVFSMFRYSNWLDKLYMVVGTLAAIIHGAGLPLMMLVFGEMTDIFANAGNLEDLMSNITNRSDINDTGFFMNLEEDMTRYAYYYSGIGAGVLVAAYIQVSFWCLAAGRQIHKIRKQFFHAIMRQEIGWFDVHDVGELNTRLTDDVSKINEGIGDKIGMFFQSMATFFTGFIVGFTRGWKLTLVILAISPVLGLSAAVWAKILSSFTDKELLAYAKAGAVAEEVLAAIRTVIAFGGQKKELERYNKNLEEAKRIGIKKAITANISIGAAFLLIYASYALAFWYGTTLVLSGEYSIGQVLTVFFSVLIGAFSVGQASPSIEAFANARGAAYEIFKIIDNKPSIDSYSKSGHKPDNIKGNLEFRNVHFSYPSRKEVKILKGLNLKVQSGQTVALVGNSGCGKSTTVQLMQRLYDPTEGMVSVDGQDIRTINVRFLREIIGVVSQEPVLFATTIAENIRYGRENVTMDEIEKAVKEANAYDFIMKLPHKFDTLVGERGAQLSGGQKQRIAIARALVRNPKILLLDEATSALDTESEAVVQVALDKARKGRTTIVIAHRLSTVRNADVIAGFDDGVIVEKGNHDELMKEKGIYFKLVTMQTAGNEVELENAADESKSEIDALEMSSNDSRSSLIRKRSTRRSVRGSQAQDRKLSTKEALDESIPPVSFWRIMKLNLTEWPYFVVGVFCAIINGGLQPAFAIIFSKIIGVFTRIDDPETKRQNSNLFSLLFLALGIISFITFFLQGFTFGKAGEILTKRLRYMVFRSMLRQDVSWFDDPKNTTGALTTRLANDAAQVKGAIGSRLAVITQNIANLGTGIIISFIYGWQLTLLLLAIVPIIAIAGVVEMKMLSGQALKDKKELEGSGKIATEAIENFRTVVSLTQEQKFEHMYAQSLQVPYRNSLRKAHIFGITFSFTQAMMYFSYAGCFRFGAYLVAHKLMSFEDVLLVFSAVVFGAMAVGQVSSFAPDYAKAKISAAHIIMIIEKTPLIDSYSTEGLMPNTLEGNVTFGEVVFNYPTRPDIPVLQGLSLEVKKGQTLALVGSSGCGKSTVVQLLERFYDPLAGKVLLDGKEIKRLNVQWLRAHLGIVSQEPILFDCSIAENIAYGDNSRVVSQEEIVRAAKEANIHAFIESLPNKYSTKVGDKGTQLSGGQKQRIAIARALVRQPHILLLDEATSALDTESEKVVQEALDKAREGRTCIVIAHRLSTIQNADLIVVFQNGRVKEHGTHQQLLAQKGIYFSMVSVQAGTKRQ

[3] = system: MCF7; experiment: Cytotoxicity against Homo sapiens (human) MCF7 cells assessed as inhibition of cell proliferation after 48 hr by SRB assay; type: cell-based; settings: mcf7, 48 h
[4] = Homo sapiens, NCI/ADR-RES, 48 h

Structure (SMILES)	IC50 [1, 4] [µM]	IC10 ([1]; nci/adr-res, 48 h) [µM]	growth inhibition (GI) [2] [%]	Activity [3]	IC50 ([1]; nci/adr-res) [µM]
COC(=O)/C(=C\c1ccc([N+](=O)[O-])cc1)CNCCc1ccc(OC)c(OC)c1	0.89	0.05	–	–	–
COC(=O)C(CNCCc1ccc(OC)c(OC)c1)C(O)c1ccc([N+](=O)[O-])cc1 (centres undefined)	85.1	15.7	12.9	Non-toxic	–
COC(=O)/C(=C\c1ccccc1)CNCCc1ccc(OC)c(OC)c1	75.8	12.9	16.1	Non-toxic	–
COC(=O)/C(=C\c1ccc(OC)c(OC)c1)CNCCc1ccc(OC)c(OC)c1	112	7.47	87.7	Non-toxic	–
COC(=O)/C(=C\c1ccc2c(c1)OCO2)CNCCc1ccc(OC)c(OC)c1	248	13.8	43.3	Non-toxic	–
COC(=O)C(CNCCc1ccc(OC)c(OC)c1)C(O)c1ccc(OC)c(OC)c1 (mixture of isomers)	–	–	6.8	Non-toxic	–
COC(=O)C(CNCCc1ccc(OC)c(OC)c1)C(O)c1ccccc1 (mixture of isomers)	238	14	11.8	Non-toxic	–
COC(=O)C(CNCCc1ccc(OC)c(OC)c1)C(O)c1ccc2c(c1)OCO2 (mixture of isomers)	238	20.7	10.4	Non-toxic	–
COC(=O)C(CNCCc1ccc(OC)c(OC)c1)Cc1ccccc1 (racemic)	193	15.2	3.2	Non-toxic	–
COC(=O)C(CNCCc1ccc(OC)c(OC)c1)Cc1ccc(OC)c(OC)c1 (racemic)	28.9	2.39	6.9	Non-toxic	–
COC(=O)C(CNCCc1ccc(OC)c(OC)c1)Cc1ccc2c(c1)OCO2 (racemic)	188	10.5	5.8	Non-toxic	–
COC(=O)C(CNCCc1ccc(OC)c(OC)c1)C(O)c1ccc(OC)c(OC)c1 (single isomer, unassigned; form 1)	371	38.2	–	–	–
COC(=O)C(CNCCc1ccc(OC)c(OC)c1)C(O)c1ccc(OC)c(OC)c1 (single isomer, unassigned; form 2)	–	30.1	–	–	298
